# Results from ChEMBL document CHEMBL6134767, “Advances in antibacterial agents for Mycobacterium fortuitum” (2025).
# Counter-ions that a name gives are not always drawn.
# Test system: Mycolicibacterium fortuitum
# Experiment: Antimycobacterial activity against Mycobacterium fortuitum ATCC 6841 assessed as reduction in microbial growth incubated for 72 hrs by resazurin dye based broth microdilution method
# Assay type: functional
# Settings: not given
row,Compound,MIC
1,COc1cc([C@](O)(CCN(C)C)[C@@H](c2cc3cc(Br)ccc3nc2OC)c2ccnc(OC)c2OC)cc(OC)n1,0.9 µM
2,O=[N+]([O-])c1ccc(C2=NOC(c3ccc(N4CCC(Oc5ccc(OC(F)(F)F)cc5)CC4)cc3)C2)o1 (stereo unspecified),12.1 µM
3,COc1ncccc1Nc1cc2nc3ccccc3n(-c3ccc(OC(F)(F)F)cc3)c-2c/c1=N\C1CCC(OC)CC1 (stereo unspecified),1.17 µM
4,O=c1ccc2ncc(=O)n3c2n1C[C@H]3CN1CCC(NCc2cc3c(cn2)OCCC3)CC1 [GEPOTIDACIN],4.46 µM
5,CC(=O)NC[C@H]1CN(c2ccc(-c3ccc(-c4nnnn4C)nc3)c(F)c2)C(=O)O1,0.61 µM
6,CC(=O)NC[C@H]1CN(c2ccc(N3CCN(c4ccc5nccn5n4)CC3)c(F)c2)C(=O)O1,2.2 µM
7,COc1ncc(-c2ccc(Cl)cc2)cc1[C@@H](c1ccccc1)[C@@](O)(CCN(C)C)c1cccc2ccccc12 [SUDAPYRIDINE],15 µM
8,COc1c(N2CCN(c3ccc(N4C[C@H](CNC(C)=O)OC4=O)cc3F)CC2)cnc2nccn12,2.07 µM

# Test system: Mycolicibacterium fortuitum
# Experiment: Antibacterial activity against Mycobacterium fortuitum ATCC 6841 assessed as reduction in bacterial growth by micro-dilution method
# Assay type: functional
# Settings: not given
row,Compound,MIC
1,Cc1cc(O)c([C@]2(C)CC[C@@H]3C[C@@]32C)cc1Br,42.3 µM
2,C=C1[C@H]2CC[C@@H]3[C@H]2C(C)(C)CCC[C@]13C [LONGIFORENE],> 0.63 µM
3,C=C1C[C@@]23CC[C@H]4[C@@](C)(CCC[C@@]4(C)C=O)[C@@H]2CC[C@@H]1C3,51.6 µM
4,C=C[C@@](C)(O)CC/C=C(/C)CCC=C(C)C [NEROLIDIOL],44.5 µM
5,CC(C)c1c(O)ccc2c1CC[C@H]1C(C)(C)CCC[C@]21C [TOTAROL],14 µM
6,C=C1[C@@H](C)CC[C@@]2(C)[C@H]1CC=C(C=O)[C@]2(O)C=O,64.4 µM

# Test system: Mycolicibacterium fortuitum
# Experiment: Antimycobacterial activity against Mycobacterium fortuitum PCM 672 assessed as reduction in microbial growth incubated for 72 hrs by resazurin dye based broth microdilution method
# Assay type: functional
# Settings: not given
row,Compound,MIC
1,Cc1noc(N)c1C(=O)N/N=C/c1ccc(C(F)(F)F)cc1,0.21 µM
2,Cc1noc(N)c1C(=O)N/N=C/c1ccc(Cl)cc1Cl,55.3 µM
3,Cc1noc(N)c1C(=O)N/N=C/c1ccc([N+](=O)[O-])cc1,51.1 µM
4,COc1ccc(/C=N/NC(=O)c2c(C)noc2N)cc1,0.24 µM
5,Cc1noc(N)c1C(=O)N/N=C/c1ccc(Cl)c(Cl)c1,0.21 µM
6,Cc1noc(N)c1C(=O)N/N=C/c1ccncc1,0.14 µM

# Test system: Mycolicibacterium fortuitum
# Experiment: Antibacterial activity against Mycobacterium fortuitum ATCC 6841 assessed as bacterial growth inhibition incubated for 72 hrs by CLSI protocol based micro-dilution method
# Assay type: functional
# Settings: not given
row,Compound,MIC
1,CC[C@H]1OC(=O)[C@H](C)[C@@H](O[C@H]2C[C@@](C)(OC)[C@@H](O)[C@H](C)O2)[C@H](C)[C@@H](O[C@@H]2O[C@H](C)C[C@H](N(C)C)[C@H]2O)[C@](C)(OC)C[C@@H](C)C(=O)[C@H](C)[C@@H](O)[C@]1(C)O [CLARITHROMYCIN],1.34 µM
2,NCC[C@H](O)C(=O)N[C@@H]1C[C@H](N)[C@@H](O[C@H]2O[C@H](CN)[C@@H](O)[C@H](O)[C@H]2O)[C@H](O)[C@H]1O[C@H]1O[C@H](CO)[C@@H](O)[C@H](N)[C@H]1O [AMIKACIN],3.41 µM
3,Cc1cc(NS(=O)(=O)c2ccc(N)cc2)no1 [SULFAMETHOXAZOLE],126 µM
4,CC(C)/N=c1\cc2n(-c3ccc(Cl)cc3)c3ccccc3nc-2cc1Nc1ccc(Cl)cc1 [CLOFAZIMINE],4.22 µM
5,CC(=O)NC[C@H]1CN(c2ccc(N3CCOCC3)c(F)c2)C(=O)O1 [LINEZOLID],23.7 µM
6,C[C@H]1c2cccc(O)c2C(=O)C2=C(O)[C@]3(O)C(=O)C(C(N)=O)=C(O)[C@@H](N(C)C)[C@@H]3[C@@H](O)[C@@H]21 [DOXYCYCLINE ANHYDROUS],0.56 µM

# Test system: Mycolicibacterium fortuitum
# Experiment: Antibacterial activity against Mycobacterium fortuitum ATCC 49404 assessed as bacterial growth inhibition incubated for 72 hrs by CLSI protocol based micro-dilution method
# Assay type: functional
# Settings: not given
row,Compound,MIC
1,NCC[C@H](O)C(=O)N[C@@H]1C[C@H](N)[C@@H](O[C@H]2O[C@H](CN)[C@@H](O)[C@H](O)[C@H]2O)[C@H](O)[C@H]1O[C@H]1O[C@H](CO)[C@@H](O)[C@H](N)[C@H]1O [AMIKACIN],5.33 µM

# Test system: Mycolicibacterium fortuitum
# Experiment: Antibacterial activity against Mycobacterium fortuitum assessed as reduction in bacterial growth
# Assay type: functional
# Settings: not given
row,Compound,MIC
1,C[C@]12CC[C@@H]3c4ccc(OCCCCCCC[n+]5ccccc5)cc4CC[C@H]3[C@@H]1CCC2=O,3.81 µM
2,CC(C)=CCC/C(C)=C/CNCCNC1C2CC3CC(C2)CC1C3 (stereo unspecified) [SQ109],3.02 µM
3,CC(C)/C(=C/CN(C)C)CC[C@@H](C)[C@H]1CC[C@H]2C3=CC[C@H]4C[C@@H](N(C)C)CC[C@]4(C)[C@H]3CC[C@]12C,67.2 µM

# Test system: Mycolicibacterium fortuitum
# Experiment: Antibacterial activity against Mycobacterium fortuitum ATCC 6841 assessed as bacterial growth inhibition incubated for 4 days by CLSI protocol based broth micro-dilution method
# Assay type: functional
# Settings: ATCC 6841, 96 h, time 4 day
row,Compound,MIC
1,CC1(C)CCC(Cc2cc(O)c(-c3ccccc3)c(=O)[nH]2)CC1,0.13 µM

# Test system: Mycolicibacterium fortuitum
# Experiment: Antibacterial activity against Mycobacterium fortuitum ATCC 6841 assessed as reduction in bacterial growth incubated for 72 hrs by Mueller-Hinton broth micro-dilution based assay
# Assay type: functional
# Settings: not given
row,Compound,MIC
1,C=C[C@H](O)C#CC#CC/C=C\CCCCCCC [FALCARINOL],16.4 µM
2,C[C@@H](N)CCCCCC/C=C\CCCCCCCCN,44 µM
3,CCCCCCCCCCCCCCCC(=O)O [PALMITIC ACID],2 µM
4,C=C[C@@H](O)C#CC#C[C@@H](O)/C=C\CCCCCCC [FALCARINDIOL],30.4 µM
5,CCCCCCCCCCC/C=C\C=C\C(O)CC(=O)O (stereo unspecified),0.11 µM
6,CCCCC/C=C\C/C=C\CCCCCCCC(=O)O [LINOLEIC ACID],14.3 µM
7,CCCCCCCC/C=C\CCCCCCCC(=O)O [OLEIC ACID],56.6 µM

# Test system: Mycolicibacterium fortuitum
# Experiment: Antimycobacterial activity against Mycobacterium fortuitum ATCC 6841 assessed as reduction in microbial growth
# Assay type: functional
# Settings: not given
row,Compound,MIC
1,O=c1cc(-c2ccc(O)c(O)c2)oc2cc(O)cc(O)c12 [LUTEOLIN],0.12 µM
2,O=c1cc(-c2ccc(O)cc2)oc2c([C@@H]3O[C@H](CO)[C@@H](O)[C@H](O)[C@H]3O)c(O)cc(O)c12,69.4 µM

# Test system: Mycolicibacterium fortuitum
# Experiment: Antimycobacterial activity against Mycobacterium fortuitum ATCC 19542 assessed as bacterial growth inhibition incubated for 72 hrs by resazurin dye based broth microdilution method
# Assay type: functional
# Settings: not given
row,Compound,MIC
1,CCN(C(=O)C1=CC(c2cc(Br)ccc2F)N2N=CNC2=N1)c1ccccc1 (stereo unspecified),2.26 µM
2,C#CCNC(=O)C1=CC(c2cc(Br)ccc2F)N2N=CNC2=N1 (stereo unspecified),2.65 µM
3,CC(NC(=O)C1=CC(c2cc(Br)ccc2F)N2N=CNC2=N1)c1ccccc1 (stereo unspecified),2.26 µM

# Test system: Mycolicibacterium fortuitum
# Experiment: Antimycobacterial activity against Mycobacterium fortuitum NCTC 10394 assessed as reduction in microbial growth incubated for 72 hrs by resazurin dye based broth microdilution method
# Assay type: functional
# Settings: not given
row,Compound,MIC
1,C[n+]1c2ccccc2cc2[n-]c3ccccc3c21 [CRYPTOLEPINE HYDROCHLORIDE],59.5 µM
2,C1=C2CCCC/C=C\C=C\CCN3CC[C@@H]4[C@H](CCCCCC/C=C\C=C/CCN(C2)C[C@H]14)C3 [HALICYCLAMINE A],54 µM
3,O=c1ccc2nccc3c4cccc(O)c4n1c23,67.7 µM
